Where two headings read alike, the source gives them in different places.
Columns and labels:
[1] = target: T1, MDMX (Homo sapiens, UniProt O15151); assay: Competitive fluorescence polarization assay for MDMX; assay type: binding; conditions: competitive FP assay
T1 sequence (O15151 1-125): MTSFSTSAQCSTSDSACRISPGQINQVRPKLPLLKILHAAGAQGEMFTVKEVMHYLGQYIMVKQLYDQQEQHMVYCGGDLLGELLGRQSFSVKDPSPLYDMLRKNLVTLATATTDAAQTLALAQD
Method: Dilute MDMX (In-house, 40 kD) into FP buffer (High salt buffer-200 mM Nacl, 5 mM CHAPS, pH 7.5.) to make 300 nM (2×) working stock solution. • 2. […] Dilute 1 mM (in 100% DMSO) of FAM labeled linear peptide with DMSO to 100 μM (dilution 1:10). Then, dilute from 100 μM to 10 μM with water (dilution 1:10) and then dilute with FP buffer from 10 μM to 40 nM (dilution 1:250). This is the working solution which will be a 10 nM concentration in well (dilution 1:4). Keep the diluted FAM labeled peptide in the dark until use. • 4. […] Dilute 10 mM (in 100% DMSO) with DMSO to 5 mM (dilution 1:2). Then, dilute from 5 mM to 500 μM with H2O (dilution 1:10) and then dilute with FP buffer from 500 μM to 20 μM (dilution 1:25). […] Transfer 10 μl of serial diluted unlabeled peptides to each well which is filled with 20 μl of 300 nM of protein. • 7. Add 10 μl of 10 nM (4×) of FAM labeled peptide into each well and incubate for 3 hr to read.

[2] = tested on: Caspase 3; assay: Caspase 3 detection assay in SJSA1 cells; assay type: cell-based; conditions: 48 h, Caspase 3 activation over DMSO-treated cells; for caspase 0.3 uM: 0.3 uM peptide; for caspase 1 uM: 1 uM peptide; for caspase 3 uM: 3 uM peptide; for caspase 10 uM: 10 uM peptide; for caspase 30 uM: 30 uM peptide
[3] = tested on: SJSA-1 cells; assay: Cell lysis by peptidomimetic macrocycles (LDH release); assay type: cell-based; conditions: 1 h at 37C
[4] = target: MDM2 (Homo sapiens, UniProt Q00987); assay: Competitive fluorescence polarization assay for MDM2; assay type: binding; conditions: competitive FP assay, MDM2
Sequence of MDM2 (Q00987 1-125): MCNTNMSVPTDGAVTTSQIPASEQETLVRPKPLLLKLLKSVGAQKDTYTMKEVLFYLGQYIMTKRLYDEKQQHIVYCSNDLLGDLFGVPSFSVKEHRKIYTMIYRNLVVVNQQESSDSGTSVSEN

Compound	IC50 ([1]; IC50 (MDMX)) [µM]	Ki ([1]; Ki (MDMX)) [µM]	caspase 0.3 uM [2]	caspase 1 uM [2]	caspase 3 uM [2]	caspase 10 uM [2]	caspase 30 uM [2]	6.25 uM % Lysed cells (1 h LDH) [3] [%]	25 uM % Lysed cells (1 h LDH) [3] [%]	50 uM % Lysed cells (1 h LDH) [3] [%]	IC50 ([4]; IC50 (MDM2)) [µM]	Ki ([4]; Ki (MDM2)) [µM]	IC50 ([1]; read-out: IC50 (MDMX)) [µM]	Ki ([1]; read-out: Ki (MDMX)) [µM]	IC50 ([4]; read-out: IC50 (MDM2)) [µM]	Ki ([4]; read-out: Ki (MDM2)) [µM]
CC(=O)N[C@@H](CCC(=O)O)C(=O)N[C@H](C(=O)N[C@@H](Cc1ccccc1)C(=O)N[C@]1(C)CCCCCCC=CCCC[C@@](C)(C(=O)N[C@@H](C)C(=O)N[C@@H](C)C(=O)N[C@@H](C)C(=O)N[C@@H](C)C(=O)N[C@@H](C)C(=O)N[C@H](C)C(N)=O)NC(=O)[C@H](CC(C)C)NC(=O)[C@H](CCC(N)=O)NC(=O)[C@H](C)NC(=O)[C@H](Cc2c[nH]c3ccccc23)NC(=O)[C@H](Cc2ccc(O)cc2)NC(=O)[C@H](CCC(=O)O)NC1=O)[C@@H](C)O (single isomer, unassigned) [compound 341]	0.01 to 0.1	< 0.01	3	8	11	14	21	0	0	0	0.01 to 0.1	< 0.01	–	–	–	–
CC(=O)N[C@@H](CC(C)C)C(=O)N[C@H](C(=O)N[C@@H](Cc1ccccc1)C(=O)N[C@]1(C)CCCCCCC=CCCC[C@@](C)(C(=O)N[C@@H](C)C(=O)N[C@@H](C)C(=O)N[C@@H](C)C(=O)N[C@@H](C)C(=O)N[C@@H](C)C(=O)N[C@@H](C)C(=O)N[C@H](C)C(N)=O)NC(=O)[C@H](CC(C)C)NC(=O)[C@H](CCC(N)=O)NC(=O)[C@H](C)NC(=O)[C@H](Cc2c[nH]c3ccccc23)NC(=O)[C@H](Cc2ccc(O)cc2)NC(=O)[C@H](CCC(=O)O)NC1=O)[C@@H](C)O (single isomer, unassigned) [compound 343]	0.01 to 0.1	< 0.01	1	1	2	5	29	0	0	0	0.01 to 0.1	< 0.01	–	–	–	–
CC(=O)N[C@@H](CC(C)C)C(=O)N[C@H](C(=O)N[C@@H](Cc1ccccc1)C(=O)N[C@]1(C)CCCCCCC=CCCC[C@@](C)(C(=O)N[C@@H](C)C(=O)N[C@@H](C)C(=O)N[C@@H](C)C(=O)N[C@@H](C)C(=O)N[C@@H](C)C(=O)N[C@H](C)C(N)=O)NC(=O)[C@H](CC2CCC2)NC(=O)[C@H](CCC(N)=O)NC(=O)[C@H](C)NC(=O)[C@H](Cc2c[nH]c3ccccc23)NC(=O)[C@H](Cc2ccc(O)cc2)NC(=O)[C@H](CCC(=O)O)NC1=O)[C@@H](C)O (single isomer, unassigned) [compound 347]	–	–	2	3	5	8	29	0	0	0	–	–	0.01 to 0.1	0.01 to 0.1	0.01 to 0.1	< 0.01
